Patent USRE44873E1, “Imidazole-5-carboxylic acid derivatives, the preparation method therefor and the uses thereof” (Salubris Asset Management Co., Ltd., priority 2006, dated 2014)

Key:
[1] = tested on: spontaneously hypertensive rat (SHR); test: Effect of lowering blood pressure in spontaneously hypertensive rats (administration through stomach fistula); type: in vivo; settings: female SHR, 30 mg/kg through stomach fistula, recorded in 6 hours after administration; for Systolic blood pressure post-administration: first figure of pair; for Diastolic blood pressure post-administration: second figure of pair
Protocol: A female spontaneously hypertensive rat (SHR) is anaesthetize by abdominal cavity injection with diazepam of 5 mg/kg and ketamine hydrochloride of 50 mg/kg and its back is fixed. An artery conduit is inserted from the left of a femoral artery to a lower abdominal aorta, and then a stomach fistula treatment is operated. After 20-30 hours for postoperative recovery, the artery conduit is connected to a pressure transducer by a perfusion three-way tube. Blood pressure signals per pulse are transformed into biologic signals by the pressure transducer, and systolic blood pressures and diastolic blood pressures per pulse are real-time recorded by a computer. After the SHR is connected to the computer system for 4-5 hours, blood pressures and palpitation intervals in one hour are recorded as normal comparing data before administration. Afterwards, the medicine with a dosage of 30 mg/kg and a volume of 2 ml/kg is administrated through the stomach fistula. Blood pressures in 6 hours after administration are continuously recorded to observe change of systolic blood pressure and diastolic blood pressure.
A female spontaneously hypertensive rat (SHR) is anaesthetize by abdominal cavity injection with diazepam of 5 mg/kg and ketamine hydrochloride of 50 mg/kg and its back is fixed. An artery conduit is inserted from the left of a femoral artery to a lower abdominal aorta, and than a stomach fistula treatment is operated. After 20-30 hours for postoperative recovery, the artery conduit is connected to it pressure transducer by a perfusion three-way tube. Blood pressure signals per pulse are transformed into biologic signals by pressure transducer, and systolic blood pressures and diastolic blood pressures per pulse are real-time recorded by a computer. When the SHR is connected to the computer system for 4-5 hours, blood pressures and palpitation intervals in one hour are recorded as normal comparing data before administration. Afterwards, it is adminstrated with a dosage of 30 mg/kg and a volume of 2 ml/kg through the stomach fistula. Blood pressures in 6 hours after administration are continuously recorded to observe changes of systolic blood pressure and diastolic blood pressure.

[2] = cited from earlier work
[3] = relative to EXP3174; cited from earlier work
in vivo = settings: both, Kunming, mouse, po
Protocol: (§1) 20 Kunming mice with weight of 18-22 g are randomly divided into two groups, each group including 10 ones with two identical halves for male and female. The mice are fasted for 6 hours, and then the two groups of mice are administrated by intragastric infusion with the compounds of the present invention in the amount of 10 g/kg, 5 g/kg, 2 g/kg. The administration volume is 0.8 ml/20 g, and the solvent is 0.5% CMC-Na. Observe and accumulate the number of dead animals during 14 days after administration (one administration) to calculate LD50.

[4] = Efficiency of active metabolism conversion (EXP3174 in blood plasma by HPLC after oral dosing); type: in vivo; settings: SD rats, 20 mg/kg oral intragastric infusion, blood at 3 hours
Protocol: The SD rats are orally administrated by intragastric infusion with a dosage of 20 mg/kg. Blood samples are collected from an orbit at the time of 3 hours since the administration. The blood samples freely drop into centrifuge tubes. The sampling amount of blood is 0.3˜0.5 ml, and the blood plasma is centrifugalized. After the sample is pre-treated, the blood is analyzed by using HPLC method to get the amount of EXP3174 in the blood plasma. Based on the molar ratio of the amount of EXP3174 and the amount of administration dosage, a ratio of the experiment compounds being converted into active metabolite in vivo may be calculated.

Kunming mice = test: Evaluation of toxicity (acute LD50, intragastric); settings: one intragastric administration, 14 days observation, 0.5% CMC-Na
Protocol: as §1

Row | Structure (SMILES) | Systolic blood pressure post-administration [1] [mmHg] | Diastolic blood pressure post-administration [1] [mmHg] | LD50 at 14 days (in vivo) [mg/kg] | also measured
1 | CCCCc1nc(Cl)c(C(=O)OCC)n1Cc1ccc(-c2ccccc2-c2nnn[nH]2)cc1 [Compound 1, 2-butyl-4-chloro-1-[2′-(1H-tetrazol-5-yl)1,1′-biphenyl-methyl]imidazole-5-carboxylic acid, ethyl ester] | 159 | 103 |  | 
2 | CCCCc1nc(Cl)c(C(=O)OC2OC(=O)c3ccccc32)n1Cc1ccc(-c2ccccc2-c2nnn[nH]2)cc1 (racemic) [Compound 2, (+/−)2-butyl-4-chloro-1-[2′-(1H-tetrazol-5-yl)1,1′-biphenyl-methyl]imidazole-5-carboxylic acid, 2-[C]-benzofuranonyl ester] | 155 | 105 |  | melting point: 120.6 to 124.6 °C
3 | CCCCc1nc(Cl)c(C(=O)OCc2oc(=O)oc2C)n1Cc1ccc(-c2ccccc2-c2nnn[nH]2)cc1 [Compound 3, 2-butyl-4-chloro-1-[2′-(1H-tetrazol-5-yl)1,1′-biphenyl-methyl]imidazole-5-carboxylic acid, cyclic 2,3-carbonate] | 158 | 102 |  | 
4 | CCCCc1nc(Cl)c(C(=O)OCOC(=O)C(C)(C)C)n1Cc1ccc(-c2ccccc2-c2nnn[nH]2)cc1 [Compound 4, 2-butyl-4-chloro-1-[2′-(1H-tetrazol-5-yl)1,1′-biphenyl-methyl]imidazole-5-carboxylic acid, pivaloyloxymethyl ester] | 159 | 102 |  | 
5 | CCCCc1nc(Cl)c(CO)n1Cc1ccc(-c2ccccc2-c2nn[nH]n2)cc1 [losartan potassium] |  |  | 2000 | Share of losartan potassium metabolized in vivo to its active substance EXP3174 [2]: 14%; Activity in reducing blood pressure as share of that of EXP3174 [3]: 3%
6 | CCCCc1nc(Cl)c(C(=O)OC(C)OC(=O)OC(C)C)n1Cc1ccc(-c2ccccc2-c2nnn[nH]2)cc1 (stereo not drawn) [Compound 5, 2-butyl-4-chloro-1-[2′-(1H-tetrazol-5-yl)1,1′-biphenyl-methyl]imidazole-5-carboxylic acid, 1-[(isopropoxycarbonyl)oxy]ethyl ester] | 157 | 101 |  | 
7 | CCCCc1nc(Cl)c(C(=O)OCOC(=O)OC(C)C)n1Cc1ccc(-c2ccccc2-c2nnn[nH]2)cc1 [Compound 8, 2-butyl-4-chloro-1-[2′-(1H-tetrazol-5-yl)1,1′-biphenyl-methyl]imidazole-5-carboxylic acid, 1-[(isopropoxycarbonyl)oxy]methyl ester] | 156 | 101 | > 10000 | 
8 | CCCCc1nc(Cl)c(C(=O)OCOC(=O)OCC)n1Cc1ccc(-c2ccccc2-c2nnn[nH]2)cc1 [Compound 9, 2-butyl-4-chloro-1-[2′-(1H-tetrazol-5-yl)1,1′-biphenyl-methyl]imidazole-5-carboxylic acid, 1-[(ethoxycarbonyl)oxy]methyl ester] | 159 | 104 | > 10000 | 
9 | CCCCc1nc(Cl)c(C(=O)OC(C)OC(=O)OC2CCCCC2)n1Cc1ccc(-c2ccccc2-c2nnn[nH]2)cc1 (racemic) [Compound 7, (+/−)2-butyl-4-chloro-1-[2′-(1H-tetrazol-5-yl)1,1′-biphenyl-methyl]imidazole-5-carboxylic acid, 1-[(cyclohexyloxycarbonyl)oxy]ethyl ester] | 157 | 103 |  | 
10 | CCCCc1nc(Cl)c(C(=O)OCOC(=O)OC(C)(C)C)n1Cc1ccc(-c2ccccc2-c2nnn[nH]2)cc1 [Compound 10, 2-butyl-4-chloro-1-[2′-(1H-tetrazol-5-yl)1,1′-biphenyl-methyl]imidazole-5-carboxylic acid, 1-[(tert-butoxycarbonyl)oxy]methyl ester] | 158 | 103 | > 10000 | 
11 | CCCCc1nc(Cl)c(C(=O)OC(C)OC(=O)OC(C)(C)C)n1Cc1ccc(-c2ccccc2-c2nnn[nH]2)cc1 (stereo not drawn) [Compound 6, 2-butyl-4-chloro-1-[2′-(1H-tetrazol-5-yl)1,1′-biphenyl-methyl]imidazole-5-carboxylic acid, 1-[(tert-butoxycarbonyl)oxy]ethyl ester] | 159 | 103 |  | melting point: 60.5 to 62 °C
12 | CCCCc1nc(Cl)c(C(=O)OC(C)OC(=O)OCC)n1Cc1ccc(-c2ccccc2-c2nn[nH]n2)cc1 (stereo not drawn) [HN-65021] |  |  |  | metabolism conversion ratio (molar ratio of EXP3174 in blood plasma to administered dosage) [4]: 1.5%; LD50 (Kunming mice): 5000 to 8000 mg/kg
